Source: patent publication US12653191B2, “Active compound combinations” (Bayer Aktiengesellschaft, priority 2020, dated 2026)

Key:
[1] = Log P by HPLC on reversed phase columns (LC-UV), method [a]: acidic range, 0.1% formic acid in water / acetonitrile; assay type: physicochemical; conditions: method [a]: HPLC on reversed phase column, acidic range, 0.1% formic acid in water / acetonitrile
Protocol: Measurement of Log P Values
Measurement of Log P values as provided herein was performed according to EEC directive 79/831 Annex V.A8 by HPLC (High Performance Liquid Chromatography) on reversed phase columns with the following methods: • ^[a]
If more than one Log P value is available within the same method, all the values are given and separated by “+”.

Alternaria alternate = experiment: in vitro-Test with fungal microorganisms, Method A (tables A1-A12); assay type: cell-based, Alternaria alternata; conditions: applied alone
How it was run: (§1)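 Broth microdilution-type growth test in potato dextrose medium with spores or mycelium of the fungus, compound pre-dried from methanol/emulsifier. Efficacy from 620 nm extinction after 3-5 days at 20° C, scaled 0% (untreated growth) to 100% (no growth).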

Cercospora beticola = experiment: in vitro-Test with fungal microorganisms, Method A (tables C1-C10); assay type: cell-based; conditions: Cercospora beticola, read-out: Efficacy %
How it was run: as §1

Diaporthe citri = experiment: in vitro-Test with fungal microorganisms, Method A (tables F1-F11); assay type: cell-based; conditions: applied alone
How it was run: as §1

Fusarium culmorum = experiment: in vitro-Test with fungal microorganisms, Method A (tables G1-G4); assay type: cell-based; conditions: alone
How it was run: as §1

[2] = system: Ustilago segetum var. avenae; experiment: in vitro-Test with fungal microorganisms, Method A (tables I1-I5); assay type: cell-based; conditions: alone, read-out: Efficacy %
How it was run: as §1

For `Cc1ccc(CC2CON=C(c3cc(C)nnc3Oc3cccc(Cl)c3F)N2)c(Cl)c1` (racemic) [Compound I-302, rac-3-[3-(3-chloro-2-fluorophenoxy)-6-methylpyridazin-4-yl]-5-[(2-chloro-4-methylphenyl)methyl]-5,6-dihydro-4H-1,2,4-oxadiazine], which chromatographic logP [1] is on record?
The chromatographic logP was 3.94.

What about the inhibition of growth at 0.0008 ppm (Alternaria alternate; Alternaria, 0.0008 ppm, read-out: Efficacy %) of the same compound?
Its inhibition of growth at 0.0008 ppm is 9%.

What about the inhibition of growth at 0.004 ppm (Alternaria alternate; Alternaria, 0.004 ppm, read-out: Efficacy %) of the same compound?
The inhibition of growth at 0.004 ppm was 6%.

And the inhibition of growth at 0.02 ppm (Alternaria alternate; Alternaria, 0.02 ppm, read-out: Efficacy %)?
The inhibition of growth at 0.02 ppm was 36%.

What about the inhibition of growth at 0.1 ppm (Alternaria alternate; Alternaria, 0.1 ppm, read-out: Efficacy %) of the same compound?
The inhibition of growth at 0.1 ppm was 100%.

And the Efficacy % (Alternaria alternate; 0.004 ppm)?
Its Efficacy % is 6%.

What about the inhibition of growth at 0.0008 ppm (Cercospora beticola; 0.0008 ppm) of the same compound?
Its inhibition of growth at 0.0008 ppm is 0%.

What about the inhibition of growth at 0.004 ppm (Cercospora beticola; 0.004 ppm) of the same compound?
Its inhibition of growth at 0.004 ppm is 0%.

What about the inhibition of growth at 0.02 ppm (Cercospora beticola; 0.02 ppm) of the same compound?
The inhibition of growth at 0.02 ppm was 31%.

What about the inhibition of growth at 0.1 ppm (Cercospora beticola; 0.1 ppm) of the same compound?
Its inhibition of growth at 0.1 ppm is 35%.

What about the inhibition of growth at 0.0008 ppm (Diaporthe citri; Diaporthe citri, 0.0008 ppm, read-out: Efficacy) of the same compound?
Its inhibition of growth at 0.0008 ppm is 0%.

What about the inhibition of growth at 0.004 ppm (Diaporthe citri; Diaporthe citri, 0.004 ppm, read-out: Efficacy) of the same compound?
Its inhibition of growth at 0.004 ppm is 1%.

And the inhibition of growth at 0.02 ppm (Diaporthe citri; Diaporthe citri, 0.02 ppm, read-out: Efficacy)?
Its inhibition of growth at 0.02 ppm is 0%.

What about the inhibition of growth at 0.1 ppm (Diaporthe citri; Diaporthe citri, 0.1 ppm, read-out: Efficacy) of the same compound?
Its inhibition of growth at 0.1 ppm is 20%.

What about the Efficacy (Diaporthe citri; 0.004 ppm) of the same compound?
The Efficacy was 1%.

And the Efficacy (Fusarium culmorum; 0.004 ppm)?
The Efficacy was 4%.

What about the inhibition of growth at 0.0008 ppm (Fusarium culmorum; Fusarium culmorum, 0.0008 ppm, read-out: Efficacy) of the same compound?
The inhibition of growth at 0.0008 ppm was 7%.

What about the inhibition of growth at 0.004 ppm (Fusarium culmorum; Fusarium culmorum, 0.004 ppm, read-out: Efficacy) of the same compound?
The inhibition of growth at 0.004 ppm was 4%.

What about the inhibition of growth at 0.02 ppm (Fusarium culmorum; Fusarium culmorum, 0.02 ppm, read-out: Efficacy) of the same compound?
Its inhibition of growth at 0.02 ppm is 2%.

What about the inhibition of growth at 0.1 ppm (Fusarium culmorum; Fusarium culmorum, 0.1 ppm, read-out: Efficacy) of the same compound?
Its inhibition of growth at 0.1 ppm is 0%.

What about the inhibition of growth at 0.0008 ppm ([2]; 0.0008 ppm) of the same compound?
The inhibition of growth at 0.0008 ppm was 0%.

What about the inhibition of growth at 0.004 ppm ([2]; 0.004 ppm) of the same compound?
The inhibition of growth at 0.004 ppm was 0%.

What about the inhibition of growth at 0.02 ppm ([2]; 0.02 ppm) of the same compound?
The inhibition of growth at 0.02 ppm was 0%.

What about the inhibition of growth at 0.1 ppm ([2]; 0.1 ppm) of the same compound?
The inhibition of growth at 0.1 ppm was 0%.
